Reference: article PMC6499206, “Quantification of Volatile Metabolites Derived From Garlic (Allium sativum) in Human Urine” (Frontiers in Nutrition, 2019)

Experiment: Quantification of garlic-derived metabolites in human urine after ingestion of 3 g raw garlic (SIDA, SAFE, HRGC-MS / HRGC-GC-MS)
Type: in vivo
Conditions: 3 g raw garlic
Excerpt: Human urine samples were obtained from 18 volunteers (age 22–38 years, mean 27 years; 11 females, 7 males); thereby, one volunteer conducted the whole experimental series twice. At the time of examination, volunteers reported no known illness that might have potentially influenced the metabolism or the excretion of urine. The test persons were instructed to avoid foods that were rich in sulfur-containing substances at the testing day as well as 2 days preceding the testing day, namely garlic, onion, wild garlic, chives, cabbage, and leek, and were only allowed to consume the garlic sample provided in the course of the experiments. Additionally, subjects were asked to keep records of the food (including food supplements) and beverages they consumed during these 3 testing days. Generally, the overall panelists' requirements were in accordance with our previous studies ([5], [16]).
On the sampling day, the outer garlic cloves of a whole garlic bulb were peeled and cut into ~3 mm cubes by using a garlic cutter (Genius GmbH, Limburg/Lahn, Germany). Subsequently these cubes were thoroughly mixed and aliquoted into 3 g portions. Three to four test persons conducted the experiment at the same day. Each test person was asked to ingest a garlic portion of 3 g. In total, eight consecutive urine samples were provided by each test person, comprising one whole urine set. The samples were collected in sterile brown glass bottles, with sampling times as follows: one sample was provided directly prior to garlic consumption. The series of the second to eighth sample was then obtained at about 0.5, 1, 2, 4, 6, 8, and 24 h after garlic consumption, respectively. Between the first urine sample (prior to garlic consumption) and the seventh urine sample (8 h after garlic consumption) test persons only spent urine at the specific time points mentioned before. Another sample was provided at the next morning (24 h after garlic consumption). Between the samples provided 8 and 24 h after garlic consumption no urine was collected. All samples were immediately placed into a −80°C freezer and were kept frozen until further analysis.
The samples of each set were termed according to their sampling time. The following list provides the time intervals that are related to the respective sample name: • - pre: before garlic consumption • - 0.5 h post: 0.4–0.8 h after garlic consumption • - 1 h post: 0.9–1.3 h after garlic consumption • - 2 h post: 1.8 h−2.2 h after garlic consumption • - 4 h post: 3.8–4.4 h after garlic consumption • - 6 h post: 5.8–6.4 h after garlic consumption • - 8 h post: 7.8–8.4 h after garlic consumption • - 24 h post: 23.8–25.6 h after garlic consumption
A creatinine kit (Labor+Technik Eberhard Lehmann GmbH, Berlin, Germany) was used to determine the creatinine content in each urine sample. The determination principle of this kit is based on the reaction of creatinine with picric acid under basic conditions (Jaffé reaction). The formed complex was detected photometrically at a wavelength of 492 nm.
For quantification purposes, the deuterated standards ^2H3-AMS, ^2H3-AMSO, and ^2H3-AMSO2 were added to the sample and stirred for 10 min. Subsequently, DCM was added in a ratio of 1:2 (DCM/human urine; v/v) and this solution was stirred for further 30 min at room temperature. To isolate the volatile fraction from the urine samples we then applied SAFE-distillation ([17]), thereby distilling the respective samples at 50°C. After completion of the distillation process, 10 mL of DCM were applied in each case to rinse the SAFE apparatus and to ensure complete transition of the volatile compounds. This process was repeated with another 10 mL of DCM. After thawing, the obtained aqueous distillate phase was extracted three times with 25 mL DCM. The organic phases were combined, dried over anhydrous Na2SO4 and concentrated to a total volume of 100 μL by means of Vigreux distillation and subsequent micro-distillation at 50°C. […]

Structure (SMILES): C=CCS(C)(=O)=O [AMSO2, allyl methyl sulfone]
- metabolite concentration in urine (U IV, 6 h post (6.08 h)): 96.7 µg/kg
- metabolite concentration in urine, creatinine-normalized (U IV, 6 h post (6.08 h)): 6.9 µg/mmol creatinine
- metabolite concentration in urine (U IV, 8 h post (8.05 h)): 73.4 µg/kg
- metabolite concentration in urine, creatinine-normalized (U IV, 8 h post (8.05 h)): 15.4 µg/mmol creatinine
- metabolite concentration in urine (U IV, 24 h post (24.03 h)): 6.8 µg/kg
- metabolite concentration in urine, creatinine-normalized (U IV, 24 h post (24.03 h)): 0.7 µg/mmol creatinine
- metabolite concentration in urine (U IV, pre (-0.05 h)): < LOD^3
- metabolite concentration in urine, creatinine-normalized (U IV, pre (-0.05 h)): < LOD^3
- metabolite concentration in urine (U IX, 0.5 h post (0.67 h)): 54.8 µg/kg
- metabolite concentration in urine, creatinine-normalized (U IX, 0.5 h post (0.67 h)): 52.1 µg/mmol creatinine
- metabolite concentration in urine (U IX, 1 h post (1.17 h)): 161.7 µg/kg
- metabolite concentration in urine, creatinine-normalized (U IX, 1 h post (1.17 h)): 167.7 µg/mmol creatinine
- metabolite concentration in urine (U IX, 2 h post (1.83 h)): 248.6 µg/kg
- metabolite concentration in urine, creatinine-normalized (U IX, 2 h post (1.83 h)): 236.2 µg/mmol creatinine
- metabolite concentration in urine (U IX, 4 h post (4.17 h)): 367.0 µg/kg
- metabolite concentration in urine, creatinine-normalized (U IX, 4 h post (4.17 h)): 70.5 µg/mmol creatinine
- metabolite concentration in urine (U IX, 6 h post (6.08 h)): 343.5 µg/kg
- metabolite concentration in urine, creatinine-normalized (U IX, 6 h post (6.08 h)): 107.8 µg/mmol creatinine
- metabolite concentration in urine (U IX, 8 h post (8.08 h)): 269.3 µg/kg
- metabolite concentration in urine, creatinine-normalized (U IX, 8 h post (8.08 h)): 19.2 µg/mmol creatinine
- metabolite concentration in urine (U IX, 24 h post (24.00 h)): 5.9 µg/kg
- metabolite concentration in urine, creatinine-normalized (U IX, 24 h post (24.00 h)): 0.7 µg/mmol creatinine
- metabolite concentration in urine (U IX, pre (-0.08 h)): < LOD^3
- metabolite concentration in urine, creatinine-normalized (U IX, pre (-0.08 h)): < LOD^3
- metabolite concentration in urine (U V, 0.5 h post (0.50 h)): 33.9 µg/kg
- metabolite concentration in urine, creatinine-normalized (U V, 0.5 h post (0.50 h)): 49.6 µg/mmol creatinine
- metabolite concentration in urine (U V, 1 h post (1.00 h)): 80.4 µg/kg
- metabolite concentration in urine, creatinine-normalized (U V, 1 h post (1.00 h)): 96.0 µg/mmol creatinine
- metabolite concentration in urine (U V, 2 h post (2.00 h)): 111.3 µg/kg
- metabolite concentration in urine, creatinine-normalized (U V, 2 h post (2.00 h)): 132.8 µg/mmol creatinine
- metabolite concentration in urine (U V, 4 h post (4.00 h)): 142.9 µg/kg
- metabolite concentration in urine, creatinine-normalized (U V, 4 h post (4.00 h)): 46.1 µg/mmol creatinine
- metabolite concentration in urine (U V, 6 h post (6.00 h)): 151.3 µg/kg
- metabolite concentration in urine, creatinine-normalized (U V, 6 h post (6.00 h)): 30.1 µg/mmol creatinine
- metabolite concentration in urine (U V, 8 h post (8.00 h)): 99.4 µg/kg
- metabolite concentration in urine, creatinine-normalized (U V, 8 h post (8.00 h)): 45.8 µg/mmol creatinine
- metabolite concentration in urine (U V, 24 h post (24.00 h)): 5.1 µg/kg
- metabolite concentration in urine, creatinine-normalized (U V, 24 h post (24.00 h)): 0.9 µg/mmol creatinine
- metabolite concentration in urine (U V, pre (-0.05 h)): < LOD^3
- metabolite concentration in urine, creatinine-normalized (U V, pre (-0.05 h)): < LOD^3
- metabolite concentration in urine (U VI, 0.5 h post (0.50 h)): 74.1 µg/kg
- metabolite concentration in urine, creatinine-normalized (U VI, 0.5 h post (0.50 h)): 33.9 µg/mmol creatinine
- metabolite concentration in urine (U VI, 1 h post (1.00 h)): 87.6 µg/kg
- metabolite concentration in urine, creatinine-normalized (U VI, 1 h post (1.00 h)): 73.1 µg/mmol creatinine
- metabolite concentration in urine (U VI, 2 h post (2.00 h)): 136.6 µg/kg
- metabolite concentration in urine, creatinine-normalized (U VI, 2 h post (2.00 h)): 123.2 µg/mmol creatinine
- metabolite concentration in urine (U VI, 4 h post (4.00 h)): 150.1 µg/kg
- metabolite concentration in urine, creatinine-normalized (U VI, 4 h post (4.00 h)): 43.2 µg/mmol creatinine
- metabolite concentration in urine (U VI, 6 h post (6.00 h)): 147.1 µg/kg
- metabolite concentration in urine, creatinine-normalized (U VI, 6 h post (6.00 h)): 27.1 µg/mmol creatinine
- metabolite concentration in urine (U VI, 8 h post (8.00 h)): 106.7 µg/kg
- metabolite concentration in urine, creatinine-normalized (U VI, 8 h post (8.00 h)): 21.2 µg/mmol creatinine
- metabolite concentration in urine (U VI, 24 h post (24.17 h)): 9.2 µg/kg
- metabolite concentration in urine, creatinine-normalized (U VI, 24 h post (24.17 h)): 0.6 µg/mmol creatinine
- metabolite concentration in urine (U VI, pre (-0.05 h)): < LOD^3
- metabolite concentration in urine, creatinine-normalized (U VI, pre (-0.05 h)): < LOD^3
- metabolite concentration in urine (U VII, 0.5 h post (0.50 h)): 44.1 µg/kg
- metabolite concentration in urine, creatinine-normalized (U VII, 0.5 h post (0.50 h)): 41.3 µg/mmol creatinine
